1 substance from patent US20080241919A1, “Defined media for pluripotent stem cell culture” (The Burnham Institute of Medical Research, priority 2003, published 2008) can be followed below.

The test system of test [1] is human embryonic stem cells (hESCs). Briefly: Short-term proliferation assay (growth rate) of hESCs in defined hESC media. The test is classed as cell-based. As to conditions: feeder-free. The procedure: (b) Short-term proliferation assays—assessing cell number. The growth rate of hESCs maintained under the feeder-free condition in the defined hESC media containing 0, 4, 10, 20, 30, or 50 ng/ml bFGF were determined and compared to that of hESCs maintained on laminin/collagen-coated plates in the MEF-conditioned media (MEF-CM) containing 10 ng/ml bFGF (see, for example, Xu, C., et al., Nat. Biotechnol. 19, 971-974 (2001)).
To further assess the effect of bFGF on hESC undifferentiated growth, short-term proliferation assays of hESCs maintained under the feeder-free condition in the defined hESC media containing 0, 4, 10, 20, 30, or 50 ng/ml bFGF were performed. The growth rate (FIG. 1b) and the percentage of undifferentiated colonies (FIG. 1c) in response to bFGF doses were compared to those of hESCs maintained in MEF-conditioned media (MEF-CM) (the latter also actually “spiked” with an additional 10 ng/ml bFGF). […] To further affirm the role of bFGF on hESC undifferentiated growth, hESCs carrying a reporter gene (enhanced green fluorescence protein [EGFP]) under control of Oct-4 promoter were generated (via lentiviral-mediated transduction).

A further test has as its system p38 MAPK. Briefly: p38 MAPK phosphorylation in hESCs (Western blot, immunocytochemistry). The test is classed as cell-based, human. An excerpt: (e) bFGF is essential for maintaining hESCs in a healthy undifferentiated state, in part through MAPK signaling […]. In media lacking bFGF, hESC colonies maintained on Matrigel-coated plates have a completely differentiated morphology upon the first passage [A]. To examine the signaling pathways that might be mediated by bFGF, the phosphorylation level of p38 MAPK in undifferentiated (in the presence of bFGF [+bFGF]) and differentiated (in the absence of bFGF [−bFGF]) hESCs was examined. […] White arrows delineate the edge of an hESC colony.
To help understand the molecular mechanisms underlying bFGF's role in maintaining undifferentiated growth of hESCs, the mitogen-activated protein kinase (MAPK) signaling pathway was examined.
A general note: Immunoblotting shows a protein as a band on a membrane.

Test [2] relates to acetylated histone H3 and H4, Myc, Tip60 HAT, p300 HAT. In words: Chromatin state immunofluorescence (acetylated H3/H4, Myc, Tip60, p300) in hESCs. The test is classed as cell-based, human. As to conditions: named factor omitted from the media. The text has this:
(c) Presence of both bFGF and insulin is essential for maintenance of an acetylated transcriptionally active chromatin state in undifferentiated hESCs. When either bFGF or insulin is omitted from the media, the differentiated hESC colonies express the differentiation-associated cell surface marker SSEA-1 [B, C] […] (green), Myc [E, F] (red), and histone acetyltransferase (HAT) Tip60 [I, K] (green) and p300 [J, K] […] All cells are indicated by DAPI staining of their nuclei (blue).
To discover the minimal essential conditions needed to support the long-term growth of undifferentiated hESCs, morphological analysis was used to assess the developmental stage of hESCs at different times. For these analyses hESCs were grown in a 6- or 12-well plate to maturation (day 6 or 7 after seeding) before being fixed and visualized under a phase contrast microscope. Cellular immunofluorescence was also employed to assess the state of differentiation of hESCs. […] The state of differentiation of hESC was further assessed by generating (via lentiviral-mediated transduction) hESCs carrying a reporter gene (enhanced green fluorescence protein (EGFP)) under control of the Oct-4 promoter. Using these transfected hESCs (carrying Oct-4 driven EGFP), the undifferentiated state of hESCs can be visualized by green fluorescence (indicating Oct-4 expression). […]

As to “bFGF: basic fibroblast growth factor, growth factor added to the defined hESC media”, the “growth rate of hESCs” value in test [1] (bFGF 10 to 50 ng/ml, compared with MEF-CM) is “growth rate comparable to that maintained in MEF-CM”. The “growth of hESCs” value in test [1] (low concentration of bFGF (4 ng/ml), defined media) is on record as “significantly slow growth”. In addition, in the test on p38 MAPK (absence of bFGF), the “large differentiated cells displaying high levels of p38 phosphorylation” value is listed as “about 5%”. In addition, the “p38 MAPK form in undifferentiated hESCs by immunocytochemistry” value with p38 MAPK (defined media containing 20 ng/ml bFGF) is “unphosphorylated inactive form of p38 MAPK was present robustly”. Further, the “phosphorylation levels of p38 MAPK by Western blot” value in the test on p38 MAPK (increased bFGF concentrations) is listed as “no changes”. Moreover, the “immunoreactivity to acetylated H3 and H4, Myc, Tip60 HAT, nuclear focal localization of p300 HAT” value in test [2] is listed as “undetectable or weak immunoreactivity”.
